Here are results for three compounds from patent publication US20250179519A1, “PROCESS TO ENHANCE VIRAL VECTOR PRODUCTION IN CELL-CULTURE USING GLYCYL-GLUTAMINE” (Evonik Operations GmbH, priority 2022, published 2025).

Molecules are shown by their SMILES. Peptide text beside a SMILES is read from it.

The subject of data set [1] is AAV8 production in HEK Expi293F cells. Nature of the data set: Genomic AAV8 titer from supernatant by qPCR. Type of data set: cell-based. To be noted: 8 mM supplement; for genomic AAV8 titer: supernatant. How it is done: (§1) A lab study to evaluate the influence of glutamine-dipeptides on viral vector production (AAV8) was conducted. HEK293 cells (HEK Expi293F cells, Thermo Fisher Scientific) were pre-cultured in shake flasks in a commercial culture medium recommended for viral vector production (Freestyle F17 Expression medium, Gibco, Thermo Fisher Scientific). After thawing the cells in 20 ml of the respective media variant (final concentration of glutamine or glutamine dipeptide in media variants was 8 mM) in 125 mL shake flasks, they were cultivated for five passages at 37° C. (185 rpm/50 mm orbit, 5% CO2) following a passaging rhythm of 3-4 days. For production, cells were split into three replicates each with a seeding viable cell density of 2×10^6 cells/mL (day 0) in 22 mL of the respective media variant. They were transfected with polyethylenimine (PEI MAX, Polysciences) with a 2-plasmid system for AAV8 (Plasmid Factory) featuring green fluorescent protein (GFP) as gene of interest 24 hours after inoculation (day 1). Again, media variants were supplemented by glutamine (Gln), alanyl-glutamine (Ala-Gln, via the liquid supplement, GlutaMAX™, Gibco, Thermo Fisher Scientific) or glycyl-glutamine hydrate (Gly-Gln, cQrex® GQ, Evonik Operations) to a final concentration glutamine or glutamine dipeptide of 8 mM (each n=3).
(§2) To analyze cell culture performance in the different media supplementations viable cell density and viability were determined via automated cell counter. Ammonium (fluorometric approach) as well as glucose and lactate concentration (enzymatic-amperometric method) were determined during preculture and AAV8 production phase on samples from one shake flask per supplement. Transfection efficiency was determined via GFP expression by flow cytometry 48, 72 and 96 h post-transfection. For AAV8 titer determination, samples of all replicates (supernatants only) were taken 96 and 120 h post-transfection and analyzed via qPCR (genomic titer) and ELISA (capsid titer).

Data set [2] has the same test system. Put plainly: AAV8 capsid titer from supernatant by ELISA. The conditions noted are these: 96 h and 120 h post transfection. Type of data set: cell-based. How it is done:
A lab study to evaluate the influence of glutamine-dipeptides on viral vector production (AAV8) was conducted. HEK293 cells (HEK Expi293F cells, Thermo Fisher Scientific) were pre-cultured in shake flasks in a commercial culture medium recommended for viral vector production (Freestyle F17 Expression medium, Gibco, Thermo Fisher Scientific). After thawing the cells in 20 ml of the respective media variant (final concentration of glutamine or glutamine dipeptide in media variants was 8 mM) in 125 mL shake flasks, they were cultivated for five passages at 37° C. (185 rpm/50 mm orbit, 5% CO2) following a passaging rhythm of 3-4 days. […]
as §2

For data set [3] the following is noted: compared with glutamine; cited from earlier work.
For the next data set, the system named is HEK Expi293F cells. Put plainly: Transfection efficiency via GFP expression by flow cytometry. The conditions noted are these: for transfection efficiency: 96 h post transfection, 8 mM supplement. The data set is classed as cell-based. The protocol: as §1, §2
Data set [4] concerns AAV8 production in HEK Expi293F cells. Nature of the data set: Full/empty ratio (genomic titer vs. capsid titer). The data set is classed as cell-based. To be noted: from mean values. How it is done:
In a preferred embodiment, the “full/empty ratio” shall be defined as viral genome titer (vg) divided by viral particle titer (vp). A suitable method to determine vg is quantitative polymerase chain reaction (qPCR). A suitable method to measure vp titer including intact virions and empty capsids is serotype-specific enzyme-linked immunosorbent assay (ELISA).
as §2
The full/empty ratio (ratio genomic titer in vg/mL vs. capsid titer in vp/mL) was calculated using the mean values for both sampling points (FIG. 11). The full/empty ratio varied between 14-22% for the 96 h post transfection time point and between 13-21% for the 120 h post transfection time point. […]

The test system of the next data set is mouse hybridoma (CC9C10). To be noted: CC9C10 culture; Gly-Gln 20 mM, Ala-Gln 6 mM; cited from earlier work.
For data set [5] the following is noted: at 20° C. in water; cited from earlier work.

Turning to `NCC(=O)N[C@@H](CCC(N)=O)C(=O)O.O` [Gly-Gln, Glycyl-L-Glutamine hydrate] (H-Gly-Gln-OH), the “genomic AAV8 titer” value in data set [1] (96 h post transfection) is recorded as 7.3×10^10 vg/mL; in data set [1] (120 h post transfection), 8.2×10^10 vg/mL. The “capsid titer compared to cultures supplemented with Gln” value in data set [2] is recorded as “higher capsid titers”. The “stability during autoclaving and storage” value in data set [3] is “comparably stable”. In the data set on HEK Expi293F cells, this compound registered a transfection efficiency of 98%. Also, the “transfection efficiency, comparison between supplements” value in the data set with HEK Expi293F cells (Gln vs Ala-Gln vs Gly-Gln, 8 mM) is listed as “highest transfection efficiency”. Also, the “relative fluorescence, comparison between supplements” value with HEK Expi293F cells (all sampling points (48, 72, 96 h)) is on record as “highest relative fluorescence”. Also, the results for the full/empty ratio in data set [4] (96 h post transfection) and in data set [4] (120 h post transfection) were 22% and 21%, respectively. In the data set with mouse hybridoma (CC9C10), the cell yields entry is on record as “high cell yields”. Moreover, the monoclonal antibody production entry in the data set with mouse hybridoma (CC9C10) is “comparable”. Moreover, in data set [5], the solubility was 154 mg/mL.
On to `NC(=O)CC[C@H](N)C(=O)O` [Gln, L-glutamine], for which, in the data set on HEK Expi293F cells, the transfection efficiency is given as 98%. Besides, in the data set on mouse hybridoma (CC9C10), the monoclonal antibody production result is “comparable”.
Regarding `C[C@H](N)C(=O)N[C@@H](CCC(N)=O)C(=O)O` [Ala-Gln, alanyl-glutamine, reference compound] (H-Ala-Gln-OH), the “genomic titer, comparison between supplements” value in data set [1] is on record as “comparable to the other processes”. Moreover, the “capsid titer compared to cultures supplemented with Gln” value in data set [2] is listed as “higher capsid titers”. Further, in data set [3], the “stability during autoclaving and storage” value is “comparably stable”. The transfection efficiency in the data set on HEK Expi293F cells is recorded as 98%. For the same compound, in the data set on mouse hybridoma (CC9C10), the cell yields entry is listed as “high cell yields” and the monoclonal antibody production result is “comparable”.
